20 molecules from ChEMBL document CHEMBL3045315, “Effect of ring A and ring B substitution on the cytotoxic potential of pyrazole tethered chalcones” (Med Chem Res, 2012) can be followed below.

What all share (type): functional, cell-based
In one experiment the test system is HEp-2. The experiment in a line: Cytotoxicity against Homo sapiens (human) Hep2 cells after 48 hr by SRB assay. The note with it: HEp-2, 48 h. A general note: Sulforhodamine B stains cellular protein and so reports cell mass.
Another experiment has as its system PC-3. Description: Cytotoxicity against Homo sapiens (human) PC3 cells after 48 hr by SRB assay. The settings on record: PC-3, 48 h.
The subject of another experiment is IMR-32. The experiment in a line: Cytotoxicity against Homo sapiens (human) IMR32 cells after 48 hr by SRB assay. The settings on record: IMR-32, 48 h.
The next experiment relates to OVCAR. Description: Cytotoxicity against Homo sapiens (human) OVCAR cells after 48 hr by SRB assay.

One may read the IC50 as the concentration needed to halve the response being measured. With `CC(=O)N1N=C(c2ccc3ccccc3c2)CC1c1ccccc1` (stereo not given), the IC50 in the experiment with HEp-2 is 8.4 µM; with PC-3 it was 7.4 µM; in the experiment with IMR-32, 10 µM; in the experiment with OVCAR, 21.5 µM.
The corresponding values for `COc1cc(C2CC(c3cccc4ccccc34)=NN2C(C)=O)cc(OC)c1OC` (stereo not given) are 1.01 µM, 1.09 µM, 1.54 µM and 1.77 µM.
Taken in the same sequence, the figures for `CC(=O)N1N=C(c2ccc3ccccc3c2)CC1c1ccco1` (stereo not given) were 19 µM, 23 µM, 11 µM and 18 µM.
The corresponding values for `CC(=O)N1N=C(c2cccc3ccccc23)CC1c1ccccc1` (stereo not given) are 11.2 µM, 8.46 µM, 7.76 µM and 7.82 µM.
For the molecule `COc1cc(C2CC(c3ccc4ccccc4c3)=NN2C(C)=O)cc(OC)c1OC` (stereo not given), the IC50 in the experiment on HEp-2 was 0.53 µM; in the experiment with PC-3 it was 0.57 µM; in the experiment on IMR-32, 0.67 µM; in the experiment on OVCAR it was 0.64 µM.
Taken in the same sequence, the figures for `COc1ccc(C2CC(c3ccc4ccccc4c3)=NN2C(C)=O)c(OC)c1OC` (stereo not given) were 0.59 µM, 0.61 µM, 0.78 µM and 0.58 µM.
Taken in the same sequence, the figures for `CC(=O)N1N=C(c2ccco2)CC1c1ccc(C)cc1` (stereo not given) were 19.3 µM, 21.2 µM, 29.1 µM and 11.2 µM.
Taken in the same sequence, the figures for `COc1ccc(C2CC(c3cccc([N+](=O)[O-])c3)=NN2C(C)=O)cc1OC` (stereo not given) were 7.81 µM, 6.78 µM, 6.22 µM and 8.11 µM.
On to `COc1ccc(C2CC(c3cccc4ccccc34)=NN2C(C)=O)cc1` (stereo not given), for which the IC50 worked out at 3.73 µM with HEp-2, 4.93 µM with PC-3, 4.99 µM with IMR-32 and 6.71 µM in the experiment on OVCAR.
In the case of `CC(=O)N1N=C(c2cccc3ccccc23)CC1c1ccccc1[N+](=O)[O-]` (stereo not given), the IC50 in the experiment on HEp-2 was found to be 3.96 µM; in the experiment on PC-3, 3.54 µM; in the experiment with IMR-32, 3.98 µM; with OVCAR it was 4.32 µM.
For the molecule `CC(=O)N1N=C(c2ccco2)CC1c1ccc([N+](=O)[O-])cc1` (stereo not given), the IC50 in the experiment with HEp-2 worked out at 21.8 µM; in the experiment on PC-3, 21.3 µM; with IMR-32, 35.8 µM; in the experiment on OVCAR, 23 µM.
The corresponding values for `CC(=O)N1N=C(c2ccc3ccccc3c2)CC1c1cccc(Cl)c1Cl` (stereo not given) are 12.5 µM, 17.9 µM, 16.9 µM and 15.1 µM.
Taken in the same sequence, the figures for `COc1ccc(C2CC(c3ccc(Br)cc3)=NN2C(C)=O)cc1` (stereo not given) were 17.9 µM, 17.8 µM, 15.7 µM and 16.9 µM.
The corresponding values for `CC(=O)N1N=C(c2ccc3ccccc3c2)CC1c1cccc([N+](=O)[O-])c1` (stereo not given) are 3.87 µM, 2.98 µM, 3.28 µM and 3.39 µM.
`COc1ccc(C2CC(c3ccc(Br)cc3)=NN2C(C)=O)cc1OC` (stereo not given): the IC50 in the experiment on HEp-2 stood at 8.87 µM; in the experiment with PC-3, 7.76 µM; with IMR-32, 5.54 µM; in the experiment with OVCAR it was 5.59 µM.
With `CC(=O)N1N=C(c2cccc3ccccc23)CC1/C=C/c1ccccc1` (stereo not given), the IC50 came to 21.1 µM with HEp-2, 21.1 µM in the experiment on PC-3, 26.7 µM in the experiment with IMR-32 and 24 µM with OVCAR.
On to `CC(=O)N1N=C(c2ccc(Br)cc2)CC1c1cccc(Cl)c1Cl` (stereo not given), for which the IC50 in the experiment with HEp-2 is 50 µM; in the experiment on PC-3, 38.8 µM; with IMR-32 it was 45.7 µM; in the experiment with OVCAR, 39.8 µM.
In the case of `COc1ccc(C2CC(c3cccc([N+](=O)[O-])c3)=NN2C(C)=O)cc1` (stereo not given), the IC50 in the experiment on HEp-2 came out at 8.21 µM; in the experiment with PC-3, 7.83 µM; in the experiment on IMR-32 it was 6.65 µM; with OVCAR, 8.76 µM.
The corresponding values for `COc1ccc(C2CC(c3ccccc3)=NN2C(C)=O)cc1` (stereo not given) are 10.7 µM, 7.67 µM, 9.73 µM and 13.8 µM.
Regarding `COc1ccc(C2CC(c3ccco3)=NN2C(C)=O)cc1` (stereo not given), the IC50 in the experiment on HEp-2 came out at 15.6 µM; with PC-3, 15.5 µM; in the experiment on IMR-32, 14.5 µM; in the experiment with OVCAR, 14.3 µM.
